Broadly, the inhibition is how much of the control response was suppressed.

26 compounds from ChEMBL document CHEMBL3044885, “Synthesis and fungicidal activity against Rhizoctonia solani of 2-alkyl (Alkylthio)-5-pyrazolyl-1,3,4-oxadiazoles (Thiadiazoles)” (2000) can be followed below.

Test [1] has as its system Rhizoctonia solani. Description: Fungicidal activity against Rhizoctonia solani inoculated on compound pre-treated fifth-leaf stage rice seedlings through foliar spraying assessed as inhibition of rice sheath blight disease at 100 ppm measured 4 days post fungal inoculation.
Test [2] concerns Rhizoctonia solani. Description: Fungicidal activity against Rhizoctonia solani inoculated on compound pre-treated fifth-leaf stage rice seedlings through foliar spraying assessed as inhibition of rice sheath blight disease at 500 ppm measured 4 days post fungal inoculation.

In the case of `CCCCCSc1nnc(-c2cc(CC)nn2C)o1`, in test [1], the inhibition at 100 ppm is 0%. Besides, the inhibition at 500 ppm in test [2] came out at 50%.
The matching figures for `CCc1nn(C)c(-c2n[nH]c(=O)o2)c1Cl`: 0% and 0%.
For `CCCCCSc1nnc(-c2c(Cl)c(CC)nn2C)s1`, in that order: 25% and 70%.
In the case of `CCc1nn(C)c(-c2nnc(SC)s2)c1Cl`, the inhibition at 100 ppm in test [1] worked out at 90%. The inhibition at 500 ppm in test [2] worked out at 90%.
In the case of `CCc1cc(-c2nnc(SC)o2)n(C)n1`, the inhibition at 100 ppm in test [1] was found to be 50%. In addition, the inhibition at 500 ppm in test [2] was found to be 90%.
In the case of `CCc1nn(C)c(-c2nnc(S)s2)c1Cl`, the inhibition at 100 ppm in test [1] stood at 90%. The inhibition at 500 ppm in test [2] is 100%.
For `CCc1nn(C)c(-c2nnc(S)o2)c1Cl`, in that order: 0% and 25%.
In the case of `CCCCCSc1nnc(-c2c(Cl)c(CC)nn2C)o1`, the inhibition at 100 ppm in test [1] stood at 25%. Moreover, in test [2], the inhibition at 500 ppm was 70%.
Regarding `CCSc1nnc(-c2c(Cl)c(CC)nn2C)s1`, the inhibition at 100 ppm in test [1] came out at 90%. Besides, the inhibition at 500 ppm in test [2] stood at 90%.
Turning to `C=CCSc1nnc(-c2c(Cl)c(CC)nn2C)s1`, the inhibition at 100 ppm in test [1] amounted to 25%. Besides, in test [2], the inhibition at 500 ppm was found to be 50%.
The matching figures for `CCc1nn(C)c(-c2nnc(C(F)(F)F)o2)c1Cl`: 25% and 70%.
The matching figures for `CCSc1nnc(-c2cc(CC)nn2C)o1`: 50% and 90%.
For `CCc1nn(C)c(-c2nnc(SC)o2)c1Cl`, in that order: 70% and 90%.
With `CCc1nn(C)c(-c2nn(C)c(=O)o2)c1Cl`, in test [1], the inhibition at 100 ppm is 0%. The inhibition at 500 ppm in test [2] is 25%.
For `CCCCc1nnc(-c2c(Cl)c(CC)nn2C)o1`, in that order: 25% and 70%.
On to `COC(=O)Nc1nc2ccccc2[nH]1` [CARBENDAZIM], for which the inhibition at 100 ppm in test [1] was determined as 100%. The inhibition at 500 ppm in test [2] was determined as 100%.
With `CCc1nn(C)c(-c2nnc(CCl)o2)c1Cl`, the inhibition at 100 ppm in test [1] is 50%. Also, the inhibition at 500 ppm in test [2] was 90%.
The matching figures for `CCCSc1nnc(-c2cc(CC)nn2C)o1`: 25% and 70%.
The matching figures for `CCc1nnc(-c2c(Cl)c(CC)nn2C)o1`: 25% and 70%.
For `CCOC(=O)C(C)Sc1nnc(-c2cc(CC)nn2C)o1` (configuration not stated), in that order: 0% and 25%.
With `CCCSc1nnc(-c2c(Cl)c(CC)nn2C)o1`, the inhibition at 100 ppm in test [1] turned out to be 50%. Besides, the inhibition at 500 ppm in test [2] amounted to 90%.
With `CCc1cc(-c2nnc(S)o2)n(C)n1`, the inhibition at 100 ppm in test [1] was found to be 25%. In test [2], the inhibition at 500 ppm came out at 50%.
For the compound `CCOC(=O)C(C)Sc1nnc(-c2c(Cl)c(CC)nn2C)o1` (configuration not stated), in test [1], the inhibition at 100 ppm turned out to be 0%. Further, in test [2], the inhibition at 500 ppm is 0%.
On to `CCCSc1nnc(-c2c(Cl)c(CC)nn2C)s1`, for which the inhibition at 100 ppm in test [1] was determined as 70%. In test [2], the inhibition at 500 ppm came out at 70%.
For `CCCCCCCSc1nnc(-c2c(Cl)c(CC)nn2C)o1`, the inhibition at 100 ppm in test [1] is 50%. The inhibition at 500 ppm in test [2] was 50%.
With `CCCCCCCCSc1nnc(-c2c(Cl)c(CC)nn2C)o1`, the inhibition at 100 ppm in test [1] was 50%. Besides, in test [2], the inhibition at 500 ppm was determined as 50%.
